21 compounds from US20090099195A1 (ASTRAZENECA AB, priority 2007, published 2009) can be followed below.

The target in test [1] is T1, rat P2X2/3 (rat P2X3 co-expressed with rat P2X2) (Rattus norvegicus, UniProt P49653+P49654).
T1 sequence (P49654 1-397): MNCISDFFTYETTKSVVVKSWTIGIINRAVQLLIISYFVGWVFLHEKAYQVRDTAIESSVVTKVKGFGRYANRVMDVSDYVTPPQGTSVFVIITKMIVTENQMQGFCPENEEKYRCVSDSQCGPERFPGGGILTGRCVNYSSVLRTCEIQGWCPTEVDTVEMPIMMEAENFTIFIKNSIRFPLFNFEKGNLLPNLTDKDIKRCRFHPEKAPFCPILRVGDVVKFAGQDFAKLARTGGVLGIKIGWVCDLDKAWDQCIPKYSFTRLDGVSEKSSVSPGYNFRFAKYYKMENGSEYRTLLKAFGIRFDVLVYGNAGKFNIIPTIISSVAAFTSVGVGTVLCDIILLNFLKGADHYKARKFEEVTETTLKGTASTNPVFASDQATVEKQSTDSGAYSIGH
T1 sequence (P49653 1-472): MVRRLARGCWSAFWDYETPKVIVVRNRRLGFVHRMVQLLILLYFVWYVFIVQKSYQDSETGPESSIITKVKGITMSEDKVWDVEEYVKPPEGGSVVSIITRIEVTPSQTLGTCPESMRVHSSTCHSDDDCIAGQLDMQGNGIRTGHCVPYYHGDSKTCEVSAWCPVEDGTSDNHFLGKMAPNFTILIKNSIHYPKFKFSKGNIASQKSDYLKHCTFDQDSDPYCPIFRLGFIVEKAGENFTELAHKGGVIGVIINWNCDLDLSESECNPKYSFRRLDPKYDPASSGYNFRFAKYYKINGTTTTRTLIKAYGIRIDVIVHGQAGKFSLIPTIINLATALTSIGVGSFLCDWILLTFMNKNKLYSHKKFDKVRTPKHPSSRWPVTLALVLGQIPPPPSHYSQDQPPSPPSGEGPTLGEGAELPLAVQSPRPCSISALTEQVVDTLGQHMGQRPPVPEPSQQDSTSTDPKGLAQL
As to the kind of experiment: rat P2X2/3 FLIPR calcium (Fluo-4) antagonist assay. Particulars: Rat P2X2/3 FLIPR Mean IC50 (nM), HEK-TREX cells, tetracycline-induced rat P2X3 with constitutive rat P2X2; agonist 500 nM α,β-methylene-ATP.
Procedure: The assay used a calcium indicator dye (Fluo-4) that emits fluorescence, the intensity of which is related to the concentration of calcium that entered the cell when P2X3 was activated and the channel opened. Activation of hP2X3 or rat P2X3 and rat P2X2/3 (from the coexpression of rat P2X3 and rat P2×2) is elicited the by P2X3 agonist α,β methylene-ATP (Sigma M6517), and the resulting fluorescence is measured with a FLIPR II™ instrument (Molecular Devices). Compounds are tested for their ability to inhibit the agonist-induced fluorescent signal.
For the rat P2X2/3 HEK-TREX cells, induction of the rat P2X3 expression is used to generate the rat P2X2/3 channels in HEK-TREX cells and performed by addition of 1 μg/mL tetracycline (Invitrogen) 24 h prior to compounds testing to the HEK-TREX expressing the rat P2X2 constitutively. On the day of the experiment, the cells and test compounds are prepared as follows. […] After preparing the compounds, the medium is removed from the cell plates by inversion. A loading solution of 30 μL assay buffer containing 4 μM of the calcium indicator dye FLUO-4 AM (Molecular Probes F14202) is added to each well using a Multidrop (Labsystems). […] The incubation is terminated by washing the cells four times in assay buffer using a Skatron Embla (Molecular Devices), and 25 μL of assay buffer was left in each well. Cell plates are then transferred to the FLIPR. Experiments are initiated by measuring a baseline fluorescence reading for 10 seconds, followed by the addition of 12.5 μL of cpds and data sampling for a total 280 seconds. The experiments are terminated by addition of 12.5 μL of a reference agonist (500 nM α,β-methylene-ATP) or buffer, producing a final assay volume of 50 μL followed by data sampling for an additional 280 seconds.
In P2X3 antagonist experiments (human and rat assays) data are analysed as normalised maximal peak fluorescence monitored following agonist addition and calculated as percent of relative fluorescent counts from control agonist. The dose-response antagonist inhibition curves are analyzed in a 4-parameter sigmoidal fit using a non-linear curve-fitting program (XLfit version 5.0.6, ID Business Solutions Limited, Guildford, UK).

Test [2] deals with T2, hP2X3 (human Purinergic P2X receptors subtype 3), clone B (Homo sapiens, UniProt P56373).
T2 sequence (P56373 1-397): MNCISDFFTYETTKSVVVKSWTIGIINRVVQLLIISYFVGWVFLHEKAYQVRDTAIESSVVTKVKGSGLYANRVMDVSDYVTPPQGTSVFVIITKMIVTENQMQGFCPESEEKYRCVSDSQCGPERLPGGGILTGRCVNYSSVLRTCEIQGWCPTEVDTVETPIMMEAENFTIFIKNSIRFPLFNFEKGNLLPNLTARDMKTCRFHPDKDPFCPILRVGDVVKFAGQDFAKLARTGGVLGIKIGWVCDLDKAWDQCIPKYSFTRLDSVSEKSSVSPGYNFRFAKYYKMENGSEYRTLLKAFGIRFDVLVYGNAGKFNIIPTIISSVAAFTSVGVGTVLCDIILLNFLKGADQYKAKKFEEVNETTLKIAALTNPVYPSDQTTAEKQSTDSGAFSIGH
As to the kind of experiment: hP2X3 FLIPR calcium (Fluo-4) antagonist assay, clone B. Particulars: Human P2X3 FLIPR Clone B IC50 (nM), RLE cells expressing hP2X3 clone B (NM_002559); agonist 500 nM α,β-methylene-ATP.

For orientation: IC50 means the concentration needed to halve the response being measured.

The structures appear in SMILES notation.

With `CCOc1ccc([C@@H](C)Nc2nc(N3CCN(C(C)=O)CC3)nc3c2CN(C(C)C)C3=O)cc1Cl` [Example 159, (R)-2-(4-acetylpiperazin-1-yl)-4-(1-(3-chloro-4-ethoxyphenyl)ethylamino)-6-isopropyl-5H-pyrrolo[3,4-d]pyrimidin-7(6H)-one], the 50% inhibitory concentration (IC50) in test [1] worked out at 547 nM; in test [2], 37 nM.

For the compound `CC(=O)N1CCN(c2nc(N[C@H](C)c3cccc(C(F)(F)F)c3)c3c(n2)C(=O)N(C(C)C)C3)CC1` [Example 230, (R)-2-(4-acetylpiperazin-1-yl)-6-isopropyl-4-(1-(3-(trifluoromethyl)phenyl)ethylamino)-5H-pyrrolo[3,4-d]pyrimidin-7(6H)-one], the IC50 in test [1] came out at 7380 nM; in test [2], 87 nM.

Regarding `CC(=O)N1CCN(c2nc3c(c(N4CCCCC4Cc4ccc(F)cc4)n2)CN(C(C)C)C3=O)CC1` (stereo not drawn) [Example 268, 4-(4-acetylpiperazin-1-yl)-2-[2-[(4-fluorophenyl)methyl]-1-piperidyl]-8-propan-2-yl-3,5,8-triazabicyclo[4.3.0]nona-1,3,5-trien-7-one], the IC50 in test [1] amounted to 12400 nM; in test [2], 500 nM.

In the case of `CC(=O)N1CCN(c2nc3c(c(N4CCC[C@@H]4C(=O)Oc4ccccc4)n2)CN(C(C)C)C3=O)CC1` [Example 304, phenyl (2R)-1-[4-(4-acetylpiperazin-1-yl)-7-oxo-8-propan-2-yl-3,5,8-triazabicyclo[4.3.0]nona-1,3,5-trien-2-yl]pyrrolidine-2-carboxylate], the figures for the half-maximal inhibitory concentration (IC50) in test [1] and in test [2] were 8730 nM and 71 nM, respectively.

As to `CC(=O)N1CCN(c2nc(NCc3ccc4ncccc4c3)c3c(n2)C(=O)N(C(C)C)C3)CC1` [Example 235, 2-(4-acetylpiperazin-1-yl)-6-isopropyl-4-(quinolin-6-ylmethylamino)-5H-pyrrolo[3,4-d]pyrimidin-7(6H)-one], the IC50 in test [1] stood at 13800 nM; in test [2] it was 83 nM.

As to `COc1ccc(CC2CCCN2c2nc(N3CCN(C(C)=O)CC3)nc3c2CN(C(C)C)C3=O)cc1` (stereo not drawn) [Example 286, 2-(4-acetylpiperazin-1-yl)-6-isopropyl-4-[2-[(4-methoxyphenyl)methyl]pyrrolidin-1-yl]-5H-pyrrolo[3,4-d]pyrimidin-7-one], the IC50 in test [1] is 3430 nM; in test [2], 67 nM.

As to `CCC(C)N1Cc2c(NCc3cnn(-c4ccccc4)c3)nc(N3CCN(C(C)=O)CC3)nc2C1=O` (single isomer, unassigned; (+)) [Example 306, (+)-4-(4-acetylpiperazin-1-yl)-8-butan-2-yl-2-[(1-phenylpyrazol-4-yl)methylamino]-3,5,8-triazabicyclo[4.3.0]nona-1,3,5-trien-7-one], the half-maximal inhibitory concentration (IC50) was found to be 3970 nM in test [1] and 34 nM in test [2].

Take `CC(=O)N1CCN(c2nc3c(c(N4CCCC4c4cc(C)cc(C)c4)n2)CN(C(C)C)C3=O)CC1` (stereo not drawn) [Example 270, 4-(4-acetylpiperazin-1-yl)-2-[2-(3,5-dimethylphenyl)pyrrolidin-1-yl]-8-propan-2-yl-3,5,8-triazabicyclo[4.3.0]nona-2,4,10-trien-7-one]: the IC50 came out at 9910 nM in test [1] and 340 nM in test [2].

Regarding `COc1cccc(C2CCCN2c2nc(N3CCN(C(C)=O)CC3)nc3c2CN(C(C)C)C3=O)c1` (stereo not drawn) [Example 131, 2-(4-Acetylpiperazin-1-yl)-6-isopropyl-4-(2-(3-methoxyphenyl)pyrrolidin-1-yl)-5H-pyrrolo[3,4-d]pyrimidin-7(6H)-one], the results for the IC50 in test [1] and in test [2] were 40000 nM and 6000 nM, respectively.

On to `CC(=O)N1CCN(c2nc3c(c(N4CCCC4c4cccc(Cl)c4)n2)CN(C(C)C)C3=O)CC1` (stereo not drawn) [Example 132, 2-(4-Acetylpiperazin-1-yl)-4-(2-(3-chlorophenyl)pyrrolidin-1-yl)-6-isopropyl-5H-pyrrolo[3,4-d]pyrimidin-7(6H)-one], for which the IC50 worked out at 13300 nM in test [1] and 1400 nM in test [2].

On to `CC(C)N1Cc2c(NC3c4cccnc4CCc4c(F)cccc43)nc(N(C)CCN(C)C)nc2C1=O` (stereo not drawn) [Example 121, 2-[[2-(dimethylamino)ethyl](methyl)amino]-4-[(9-fluoro-10,11-dihydro-5H-benzo[4,5]cyclohepta[1,2-b]pyridin-5-yl)amino]-6-isopropyl-5,6-dihydro-7H-pyrrolo[3,4-d]pyrimidin-7-one], for which the IC50 in test [1] is 4580 nM; in test [2] it was 150 nM.

As to `CCOc1ccc(C2CCCN2c2nc(N3CCN(C(C)=O)CC3)nc3c2CN(C(C)C)C3=O)cc1` (stereo not drawn) [Example 272, 4-(4-acetylpiperazin-1-yl)-2-[2-(4-ethoxyphenyl)pyrrolidin-1-yl]-8-propan-2-yl-3,5,8-triazabicyclo[4.3.0]nona-2,4,10-trien-7-one], the concentration for half-maximal inhibition (IC50) in test [1] worked out at 12900 nM; in test [2], 270 nM.

Regarding `CC(=O)N1CCN(c2nc(NC(C)c3cnn(-c4ccccc4F)c3)c3c(n2)C(=O)N(C(C)C)C3)CC1` (stereo not drawn) [Example 149, 4-(4-acetylpiperazin-1-yl)-2-[1-[1-(2-fluorophenyl)pyrazol-4-yl]ethylamino]-8-propan-2-yl-3,5,8-triazabicyclo[4.3.0]nona-1,3,5-trien-7-one], the IC50 in test [1] is 5070 nM; in test [2], 260 nM.

Take `COc1cc(C(F)(F)F)ccc1CNc1nc(N2CCN(C(C)=O)CC2)nc2c1CN(C(C)C)C2=O` [Example 225, 2-(4-acetylpiperazin-1-yl)-6-isopropyl-4-(2-methoxy-4-(trifluoromethyl)benzylamino)-5H-pyrrolo[3,4-d]pyrimidin-7(6H)-one]: the values for the IC50 in test [1] and in test [2] were 60700 nM and 290 nM, respectively.

For the compound `CC(=O)N1CCN(c2nc(NC3(c4ccc(Cl)cc4)CC3)c3c(n2)C(=O)N(C(C)C)C3)CC1` [Example 130], the IC50 in test [1] was found to be 13300 nM; in test [2], 2300 nM.

Regarding `CC(=O)N1CCN(c2nc(N[C@H](C)c3cnc4ccccc4c3)c3c(n2)C(=O)N(C(C)C)C3)CC1` (single isomer, unassigned) [Example 344], the IC50 stood at 234 nM in test [1] and 35 nM in test [2].

Turning to `CC(C)N1Cc2c(NC(C)(C)Cc3ccc(F)cc3)nc(N3CCN4C(=O)OC[C@H]4C3)nc2C1=O` [Example 140, (R)-7-{4-[2-(4-Fluoro-phenyl)-1,1-dimethyl-ethylamino]-6-isopropyl-7-oxo-6,7-dihydro-5H-pyrrolo[3,4-d]pyrimidin-2-yl}-hexahydro-oxazolo[3,4-a]pyrazin-3-one], the IC50 in test [1] came out at 8470 nM; in test [2], 1100 nM.

As to `CC(=O)N1CCN(c2nc(NC(C)(C)Cc3ccc(C)cc3)c3c(n2)C(=O)N(C(C)C)C3)CC1` [Example 164, 2-(4-acetylpiperazin-1-yl)-6-isopropyl-4-(2-methyl-1-p-tolylpropan-2-ylamino)-5H-pyrrolo[3,4-d]pyrimidin-7(6H)-one], the IC50 in test [1] amounted to 2910 nM; in test [2], 56 nM.

With `CCC(C)N1Cc2c(NCc3cc4ccccc4cn3)nc(N3CCN(C(C)=O)CC3)nc2C1=O` (single isomer, unassigned; (-)) [Example 311, (−)-2-(4-acetylpiperazin-1-yl)-4-(3-isoquinolylmethylamino)-6-sec-butyl-5H-pyrrolo[3,4-d]pyrimidin-7-one], the values for the IC50 in test [1] and in test [2] were 1680 nM and 28 nM, respectively.

Consider `CC(=O)N1CCN(c2nc(N[C@H](C)c3ccc(OC(F)F)cc3)c3c(n2)C(=O)N(C(C)C)C3)CC1` [Example 114, 2-(4-acetylpiperazin-1-yl)-4-({(1R)-1-[4-(difluoromethoxy)phenyl]ethyl}amino)-6-isopropyl-5,6-dihydro-7H-pyrrolo[3,4-d]pyrimidin-7-one], for which the results for the half-maximal inhibitory concentration (IC50) in test [1] and in test [2] were 3300 nM and 71 nM, respectively.

Consider `CC(=O)N1CCN(c2nc(N[C@H](C)c3ccc4ncccc4c3)c3c(n2)C(=O)N(C(C)C)C3)CC1` [Example 243, (R)-2-(4-acetylpiperazin-1-yl)-6-isopropyl-4-(1-(quinolin-6-yl)ethylamino)-5H-pyrrolo[3,4-d]pyrimidin-7(6H)-one], for which the IC50 came out at 1240 nM in test [1] and 36 nM in test [2].
